From patent US11331364B2, “Use for JNK inhibitor molecules for treatment of various diseases” (Xigen Inflammation Ltd., priority 2014, dated 2022)
Where “and” joins values, the source holds several entries; their conditions need not be identical. Equal values may be shown once. Square brackets hold non-standard residues; d marks the D form. Peptide text beside a SMILES is read from it.

How the values were obtained:
[1] = test system: rat model of kidney bilateral ischemia reperfusion; test: Kidney bilateral ischemia reperfusion, tubular histological scores, Sprague-Dawley rats; type: in vivo
Method: Male Sprague-Dawley rats weighing 200-250 g at delivery were used (Charles River Laboratories, L'Arbresle, France). Animals were delivered to the laboratory at least 5 days before the experiments during which time they were acclimatized to laboratory conditions. This study included 3 groups of 11-12 rats each, as follow:
The protocol of warm renal ischemia was similar to that previously described (Pechman K R et al., 2009). Briefly, under general anesthesia (pentobarbital; 60 mg/kg, i.p. and atropine; 1 mg/kg, i.p.), both renal pedicles were isolated and clamped for 40 minutes using atraumatic clamps. After this time, clamps were released to start reperfusion. Animals were maintained at 37° C. using a thermo-regulated system (TCAT-2LV Controller, Physitemp Instruments, Clifton, N.J., USA) during the surgery. All the animals were sacrificed 24 hours after the release of both vascular clamps (reperfusion). Sham-operated animals underwent the same surgical procedure without clamping of the kidney vessels.
XG-104 or vehicle (0.9% NaCl) were administered into the tail vein (i.v.) at the dose of 2 mg/kg twenty minutes after the release of the second vascular clamp. Intravenous administrations into the tail vein were performed using the volume of 1 mL/kg.
After sacrifice, kidneys were removed, cleaned from all connective tissue and capsule and weighted on an electronic balance (VWR, France). One kidney was transferred in formalin solution 10% (Sigma Aldrich, France) for at least 24 h and then transferred in ethanol 70% for further histological analysis performed by Histalim (Montpellier, France). Right and left kidneys were randomly chosen. Kidney samples were fixed in 10% formalin during 72 hours, transferred into 70% ethanol, then embedded in paraffin blocks by Histalim (Montpellier, France). One longitudinal section (3 to 5 µm) was made per block. Kidney sections of paraffin embedded tissue were stained by hematoxylin and eosin (H&E). All the slides were digitalized at ×20 magnitude using Nanozoomer 2.0 HT from Hamamatsu (Hamamatsu, Japan). Each tissue section was examined histologically in a blinded manner to determine if tubular changes were present. The severity of each finding was then graded as follows:
Tubular damage score consisted of either degeneration/necrosis, tubular epithelial vacuolation, regeneration (basophil tubules), and tubular cast: […]

PKR−/− neurons = test: Neuronal apoptosis after Aβ42 stress in PKR−/− primary cortical neurons; type: cell-based, mouse
Method: To obtain primary cortical neuronal cultures, E15.5 mice embryos were dissected in PBS (Phosphate Buffered Saline) 6% glucose, on ice. Embryos cortices were minced into small pieces and treated with PBS glucose trypsin (Sigma Aldrich, Saint-Louis, USA) for 20 min at 37° C. Dissociated cortical cells were cultured in Neurobasal media complemented with B27, Glutamax and penicillin-streptomycin (Gibco). Neurons were cultured at 37° C., 5% CO2 on pre-coated with poly-L-lysin (Sigma Aldrich) petri dishes. Neurons were cultured to maturity (7 days) before use.
To induce […] stress 2 μM of Aβ1-42 (Thermo Fisher Scientific, Mass., USA) were used during 5 h on cortical neurons. Aβ42-1 inversed peptide (Thermo Fisher Scientific) was used as negative control. AP 1-42 and Aβ42-1 were dissolved in pure water and incubated at 37° C. for 48 h before use.
To inhibit JNK, cortical neurons were pre-treated with 10 μM of XG-104 1 h before cell-stress treatment.
For immunoblot analysis cells were lysed on ice in a lysis buffer containing […] NaPi pH 7.8, […] NaCl, 1% Triton, 0.5% DOC, 0.1% SDS, 10% glycerol, 0.1 μM calyculin A, 1 mM Na3VO4 and 1× of a protease inhibitor cocktail (Sigma Aldrich). Lysates were sonicated and centrifugated 10 min at 15000 g at 4° C. The supernatant protein concentration was determined with the Micro BCA protein assay kit (Thermo Scientific). Thirty micrograms of proteins were resolved on SDS-PAGE and transferred onto nitrocellulose membrane. After blocking with TBS 5% skim milk, the membranes were probed with primary antibodies to JNK full, c-Jun, PKR, eIF2α (Santa Cruz, Danvers, USA), pJNK (Millipore, Billerica, USA), phosphor eIF2a (Thermo Fisher Scientific), PARP and tubulin (Cell Signaling, Danvers, USA). IR Dyes 800 and 700 (Rockland Immunochemical Inc, Gilbertsville, USA) antibodies were used as secondary antibodies. Blots were reveled with Odyssey imaging system (LI-COR Biosciences, Lincoln, USA).
For caspase 3 activity analysis culture cell supernatants containing degenerating and dead neurons, and cell medium were collected in parallel of adhesive neurons lysis. Culture cell supernatants were centrifugated 10 min at 15000 g at 4° C. Pellets were then resuspended in lysis buffer and caspase 3 activity was measured by using the Caspase 3 Assay kit reagents and protocol (Abcam, Cambridge, UK).

[2] = test system: Primary Rat Whole Blood Cells; test: LPS-induced TNFα release in rat whole blood; type: cell-based; settings: LPS 3 ng/ml; 1, 3, 10 μM
Method: Given are the results for the control, 1 μM of SEQ ID NO: 172, 3 μM of SEQ ID NO: 172, and 10 μM of SEQ ID NO: 172 at different levels of LPS (ng/ml).
Whole blood is collected from anesthetized rat or human healthy volunteers using a venipuncture connected to a pre-labeled vacuum tube containing sodium citrate. Tubes are gently mixed by inversion 7-8 times; and are then kept at RT until stimulation. JNK inhibitor of SEQ ID NO: 172 is prepared 6 times concentrated in PBS, and 30 μl/well of mix is added into 96-well plate. Whole blood is diluted by 1:2 in PBS and 120 μl of diluted blood is added in each well where either PBS alone or JNK inhibitor of SEQ ID NO: 172 has been previously added. Whole blood is incubated at 37° C.; 85 rpm (Stuart Orbital incubator SI500) for 60 min. Activators (LPS) are the prepared, 30 μl/well of LPS, 6 times concentrated. After 60 min incubation, LPS is added to the blood, blood is mixed by pipetting up and down, and then kept for 4 h under agitation (85 rpm), at 37° C. After the 4 h incubation, the plates are centrifuged at about 770 g, 4° C. for 15 min in a pre-cooled centrifuge. […] Cytokine (IL-6, IL-2, IFNγ and TNFα) were then measured using standard Elisa kits (e.g. from R&D Systems: DuoSet Elisas; or from BD Biosciences: BD Opteia Set Elisa). Results are expressed as pg/ml of supernatant of the measured cytokine.

[3] = 2 mg/kg i.v. after reperfusion, 24 hours
[4] = 2 mg/kg i.v. after reperfusion, 24 hours, listed as XG-104
[5] = PKR−/− neurons, 10 μM, vs Aβ42 treated PKR−/− neurons
[6] = dual inhibition of PKR and JNK, vs treated WT neurons

CC(C)C[C@H](NC(=O)[C@H](CC(N)=O)NC(=O)[C@H](CC(C)C)NC(=O)[C@@H](NC(=O)[C@@H](C)NC(=O)[C@@H]1CCCN1C(=O)[C@H](CCCNC(=N)N)NC(=O)[C@@H](CCCCN)NC(=O)[C@@H]1CCCN1C(=O)[C@H](CCCNC(=N)N)NC(=O)[C@@H](CCCNC(=N)N)NC(=O)[C@H](CCCNC(=N)N)NC(=O)[C@H](CCCNC(=N)N)NC(=O)[C@H](CCC(N)=O)NC(=O)[C@@H](CCCNC(=N)N)NC(=O)[C@H](CCCNC(=N)N)NC(=O)[C@H](CCCCN)NC(=O)[C@H](CCCCN)NC(=O)[C@H](N)CCCNC(=N)N)[C@@H](C)O)C(=O)N[C@H](Cc1ccccc1)C(N)=O [SEQ ID NO: 172, rKKRrQRRrRPkRPaTLNLf] (H-[dR]KKR[dR]QRR[dR]RP[dK]RP[dA]TLNL[dF]-NH2; N-terminus assumed)
animals with degeneration/necrosis score of 1 [1, 3]: 1/11 | total tubular score (mean) [1, 3]: 6.00±1.26 | animals with degeneration/necrosis score of 4 [1, 4]: 1/12 and 1/11 | mean basophilic tubule score [1, 4]: 1.33±0.65 and 1.73±0.47 | mean tubular epithelial degeneration/necrosis score [1, 4]: 2.67±0.65 and 2.18±0.75 | tubular damages ([1]; 2 mg/kg i.v., vs IR/Vehicle): significant beneficial effects on tubular damages | decrease of caspase 3 activity (PKR−/− neurons; [5]): 61% | decrease of cleaved PARP expression level (PKR−/− neurons; [5]): 86% | decrease of cleaved caspase 3 expression level (PKR−/− neurons; [5]): 42% | decrease of PARP expression levels (PKR−/− neurons; [6]): 93% | decrease of caspase 3 activity (PKR−/− neurons; [6]): 87% | decrease of cleaved caspase 3 (PKR−/− neurons; [6]): 83% | LPS-induced TNFα release [2]: blocks LPS-induced TNFα release
